Source: patent US10584317B2 (priority 2006, dated 2020)
Entries after “also recorded” stand apart in the source; their conditions may differ. Where two headings read alike, the source gives them in different places.

Key:
A549 tumors = system: A549 tumors; design: species or system nude mice; conditions: mouse, in vivo
PANC-1 tumors [1] = system: PANC-1 tumors; design: species or system nude mice; conditions: mouse, in vivo
GLV-1h71 = type: cell-based, vaccinia virus
GLV-1h74 = type: cell-based, vaccinia virus
GLV-1h73 = type: cell-based, vaccinia virus
GLV-1h68 = type: cell-based, vaccinia virus
GI-101A tumors [2] = conditions: mouse, in vivo
GI-101A tumors [3] = system: GI-101A tumors; design: species or system nude mice; conditions: mouse, in vivo
PANC-1 tumors [4] = type: in vivo, nude mice

Nc1ccn([C@@H]2O[C@H](CO)[C@@H](O)C2(F)F)c(=O)n1 [Gemcitabine]
Effect on tumor growth (A549 tumors): increased tumor growth | Effect on tumor growth (PANC-1 tumors [1]): moderately decreased tumor growth

Nc1ccn(C[C@@H](CO)OCP(=O)(O)O)c(=O)n1 [cidofovir]
Plaque formation by GLV-1h71 (GLV-1h71): smaller plaques; also recorded: almost completely inhibited | Size or number of plaques of GLV-1h71 vs control (GLV-1h71): no significant differences | Number and size of plaques of GLV-1h74 (GLV-1h74): significantly reduced | Plaque formation by GLV-1h74 (GLV-1h74): smaller plaques | Size or number of plaques of GLV-1h74 vs control (GLV-1h74): no significant differences | Number and size of plaques of GLV-1h73 (GLV-1h73): significantly reduced | Plaque formation by GLV-1h73 (GLV-1h73): smaller plaques | Size or number of plaques of GLV-1h73 vs control (GLV-1h73): no significant differences | Plaque formation by GLV-1h68 (GLV-1h68): smaller plaques; also recorded: almost completely inhibited | Size or number of plaques of GLV-1h68 vs control (GLV-1h68): no significant differences | Interference with tumor therapy by the virus (GI-101A tumors [2]): did not significantly interfere | Survival time of GLV-1h74 injected mice (GI-101A tumors [2]): significantly extended

N.N.[Cl][Pt][Cl] [Cisplatin, cis-diamminedichloroplatinum]
Effect on tumor growth (GI-101A tumors [3]): decreased the rate of tumor growth, but did not shrink tumors | Effect on tumor growth (PANC-1 tumors [4]; PANC-1): unable to arrest tumor growth | Median tumor volume (PANC-1 tumors [4]; day 36 post-implantation): 170.2 mm^3 | Median tumor volume (PANC-1 tumors [4]; day 46): 296.6 mm^3 | Median tumor volume (PANC-1 tumors [4]; day 52): 254.95 mm^3 | Median tumor volume (PANC-1 tumors [4]; day 57): 326.2 mm^3 | Median tumor volume (PANC-1 tumors [4]; day 63): 460.3 mm^3 | Median tumor volume (PANC-1 tumors [4]; day 72): 663.4 mm^3 | Median tumor volume (PANC-1 tumors [4]; day 79): 1022.0 mm^3 | Median tumor volume (PANC-1 tumors [4]; day 86): 1718.3 mm^3 | Median tumor volume (PANC-1 tumors [4]; day 94): 2520.4 mm^3 | Median tumor volume (PANC-1 tumors [4]; day 100): 3254.1 mm^3

COc1cccc2c1C(=O)c1c(O)c3c(c(O)c1C2=O)C[C@@](O)(C(=O)CO)C[C@@H]3O[C@H]1C[C@H](N)[C@H](O)[C@H](C)O1 [Doxorubicin, doxorubicin]
Effect on tumor growth (GI-101A tumors [3]): did not have any effect on the rate of tumor growth
